Here are results for 24 compounds from PubChem BioAssay (NCI).

Values joined by “and” are separate entries in the source; they are usually repeats but may differ in a detail not shown here. Equal values may be shown once.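 Step 1: Grow cells in 96-well plates. Step 2: Expose to compound for 48 hours at 5 concentrations. Step 3: Interpolate endpoints linearly; if unreached, use highest concentration. Abbreviation: GI50, concentration required for 50% inhibition of growth. TGI marks complete inhibition of growth.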 A value given as a limit tells only on which side of the number the result lay.

Some test systems named below: DLD-1 colon; IGROV1 ovarian; LXFL 529 NSCLC; NCI-H226 lung; NCI-H460 lung; SF-295 CNS; SK-MEL-28 melanoma; SW-620 colon; HCT-116 colon; MDA-MB-435.
What all share (test): NCI tumour cell line growth inhibition, 48 h

Take `CC(O)C(NC(=O)c1ccccc1)C(=O)N(Cc1ccccc1)Cc1ccccc1` (centres undefined): the TGI with DLD-1 colon, in the test with IGROV1 ovarian, in the test with LXFL 529 NSCLC, in the test on NCI-H226 lung, in the test with NCI-H460 lung and in the test with SF-295 CNS was over 100 µM each time. Besides, the TGI in the test with SK-MEL-28 melanoma and with SW-620 colon was over 100 µM throughout.

Regarding `COc1ccccc1NC(=O)C1=C(C)NC(C)=C(C(=O)Nc2ccccc2OC)C1c1cccc2ccccc12`, the TGI with DLD-1 colon, with HCT-116 colon, with IGROV1 ovarian, in the test with LXFL 529 NSCLC, with NCI-H226 lung and in the test on NCI-H460 lung was over 100 µM in each case. In addition, the TGI in the test with SF-295 CNS, in the test with SK-MEL-28 melanoma and with SW-620 colon was over 100 µM throughout.

Regarding `N#Cc1cc([N+](=O)[O-])ccc1NC(=O)C(=O)C(C(=O)c1ccc2ccccc2c1)C1OCc2ccccc21` (centres undefined), the TGI in the test with DLD-1 colon came to 54.2 µM; with HCT-116 colon, 16.2 µM; in the test on IGROV1 ovarian, 61.6 µM; in the test with LXFL 529 NSCLC it was 13.7 µM; in the test on NCI-H226 lung, 4.46 µM; in the test on NCI-H460 lung, 20.5 µM. Also, the TGI in the test on SF-295 CNS is 23.9 µM; with SK-MEL-28 melanoma it was 21.4 µM; in the test on SW-620 colon, 41.1 µM.

Consider `CCCC(=O)c1ccc(=O)n(C)c1`, for which the TGI in the test with DLD-1 colon, with HCT-116 colon, with IGROV1 ovarian, in the test with LXFL 529 NSCLC, with NCI-H226 lung and in the test on NCI-H460 lung was over 100 µM each time. The TGI in the test on SF-295 CNS, with SK-MEL-28 melanoma and in the test with SW-620 colon was over 100 µM in each case.

As for `O=C1/C(=C/c2ccc(Cl)c(Cl)c2)CNC/C1=C\c1ccc(Cl)c(Cl)c1`, the TGI was found to be 3.84 µM in the test on DLD-1 colon; 5.66 µM with HCT-116 colon; 18.8 µM in the test with IGROV1 ovarian; 12.2 µM with LXFL 529 NSCLC; 43.7 µM in the test on MDA-MB-435; 39.9 µM with NCI-H226 lung. The TGI worked out at 29.1 µM with NCI-H460 lung, 76.6 µM in the test on SF-295 CNS, 62.9 µM in the test on SK-MEL-28 melanoma and 11.9 µM in the test with SW-620 colon.

With `CC(=O)OCCOCNC(=S)N/N=C(\C)c1cccs1`, the TGI in the test with DLD-1 colon, in the test with HCT-116 colon, in the test on IGROV1 ovarian, in the test with LXFL 529 NSCLC, in the test with NCI-H226 lung and with NCI-H460 lung was over 100 µM in each case. For the same compound, the TGI with SF-295 CNS, with SK-MEL-28 melanoma and in the test on SW-620 colon was over 100 µM throughout.

For the compound `CCOc1ccc(NCC2CC/C(=C\c3ccc(Cl)cc3)C2=O)cc1` (centres undefined), the TGI was 26.6 µM with DLD-1 colon; over 62.9 µM with HCT-116 colon; over 50.6 µM in the test on IGROV1 ovarian; 25.8 µM with LXFL 529 NSCLC; over 100 µM with NCI-H226 lung; over 100 µM with NCI-H460 lung. Also, the TGI is over 100 µM with SF-295 CNS, over 100 µM in the test with SK-MEL-28 melanoma and 39.6 µM in the test on SW-620 colon.

Take `CC#CC#C/C=C1\C=CC2(OC=CC2OC(C)=O)O1` (centres undefined): the TGI is 34.3 µM with DLD-1 colon; > 100 µM and 33.1 µM with HCT-116 colon; over 100 µM with IGROV1 ovarian; 32.2 µM in the test on LXFL 529 NSCLC; over 100 µM with MDA-MB-435; > 100 µM and 23.4 µM with NCI-H226 lung. The TGI in the test on NCI-H460 lung is 65 µM and > 100 µM; in the test on SF-295 CNS it was over 100 µM; in the test with SK-MEL-28 melanoma it was over 100 µM; in the test on SW-620 colon, 65.9 µM and 39.7 µM. For the same compound, the GI50 in the test on HCT-116 colon was 39.8 µM and 17.3 µM; in the test on NCI-H226 lung, > 100 µM and 11.1 µM; in the test on SK-MEL-28 melanoma, 43.5 µM.

For the compound `O=C1C(Br)=C(Br)C(=O)c2ccccc21`, the TGI in the test on DLD-1 colon was 35.2 µM and 67.5 µM; with HCT-116 colon, 31.8 µM and 28.1 µM; in the test with IGROV1 ovarian, 45.5 µM and 17.4 µM; in the test with LXFL 529 NSCLC it was 34 µM and 11.7 µM; with MDA-MB-435, 21.8 µM; with NCI-H226 lung it was 31.9 µM and 12.2 µM. Moreover, the TGI was > 100 µM and 33.9 µM with NCI-H460 lung; > 100 µM and 28.6 µM in the test on SF-295 CNS; 32.8 µM and 15.6 µM with SK-MEL-28 melanoma; 29.5 µM and 8.64 µM in the test on SW-620 colon. In addition, the GI50 in the test on IGROV1 ovarian was 16.9 µM and 6.06 µM; in the test with LXFL 529 NSCLC, 19.2 µM and 5.82 µM; with NCI-H226 lung, 15.5 µM and 4.52 µM; in the test on NCI-H460 lung, 32.7 µM and 10.6 µM; in the test with SF-295 CNS, 91.1 µM and 14.6 µM; in the test with SK-MEL-28 melanoma, 18.4 µM and 4.98 µM. Also, in the test on SW-620 colon, the GI50 was 16 µM and 2.28 µM.

For `COC1C(CO)OC(n2c3c(Cl)cccc3c3c4c(c5c6cccc(Cl)c6[nH]c5c32)C(=O)NC4=O)C(O)C1O` (centres undefined), the TGI with DLD-1 colon is over 100 µM; in the test with HCT-116 colon, 0.781 µM; in the test with IGROV1 ovarian, 7.76 µM; with LXFL 529 NSCLC, over 100 µM; in the test with MDA-MB-435, over 100 µM; with NCI-H226 lung it was 0.666 µM. Further, the TGI was 0.479 µM with NCI-H460 lung, 4.32 µM in the test with SF-295 CNS, over 73.5 µM in the test on SK-MEL-28 melanoma and over 100 µM with SW-620 colon.

On to `NC(CCc1ncc(-c2ccccc2)s1)C(=O)O` (centres undefined), for which the TGI in the test on DLD-1 colon, in the test on HCT-116 colon, in the test with IGROV1 ovarian, in the test on LXFL 529 NSCLC, with NCI-H226 lung and in the test with NCI-H460 lung was over 100 µM throughout. In addition, the TGI with SF-295 CNS, with SK-MEL-28 melanoma and in the test on SW-620 colon was over 100 µM in each case.

Turning to `CC(C)CN1CC(C)C(=O)NC1=O` (centres undefined), the TGI in the test with DLD-1 colon, with LXFL 529 NSCLC, in the test on NCI-H226 lung, in the test with NCI-H460 lung, with SF-295 CNS and in the test with SK-MEL-28 melanoma was over 100 µM in each case. Further, the TGI with SW-620 colon was over 100 µM.

On to `OCC(O)COc1c(Cl)cc(Cl)cc1Cl` (centres undefined), for which the TGI with DLD-1 colon, in the test with HCT-116 colon, in the test on IGROV1 ovarian, in the test on LXFL 529 NSCLC, in the test on NCI-H226 lung and with NCI-H460 lung was over 100 µM in each case. Moreover, the results for the TGI in the test with SF-295 CNS, in the test with SK-MEL-28 melanoma and with SW-620 colon were over 100 µM, over 100 µM and over 51.9 µM, respectively.

Turning to `CCOC(=O)C(=O)Nc1ccccc1OCC`, the TGI in the test with DLD-1 colon, in the test on HCT-116 colon, with IGROV1 ovarian, in the test with LXFL 529 NSCLC, with NCI-H226 lung and in the test with NCI-H460 lung was over 100 µM throughout. Further, the TGI with SF-295 CNS, with SK-MEL-28 melanoma and in the test with SW-620 colon was over 100 µM each time.

In the case of `CN1C(=O)CCC1c1ccc2c(c1)oc(=O)n2C` (centres undefined), the TGI in the test on DLD-1 colon, in the test with HCT-116 colon, with IGROV1 ovarian, in the test on LXFL 529 NSCLC, in the test on NCI-H226 lung and in the test on NCI-H460 lung was over 100 µM throughout. In addition, the TGI in the test with SF-295 CNS, with SK-MEL-28 melanoma and in the test with SW-620 colon was over 100 µM in each case.

As for `O=C(/C=C/c1ccccc1O)c1cccc2ccccc12`, the TGI in the test with DLD-1 colon is over 100 µM; in the test with HCT-116 colon, over 69.7 µM; with IGROV1 ovarian, over 100 µM; in the test on LXFL 529 NSCLC, over 100 µM; with NCI-H226 lung, over 100 µM; with NCI-H460 lung, over 100 µM. Moreover, the results for the TGI in the test on SF-295 CNS, in the test on SK-MEL-28 melanoma and with SW-620 colon were over 100 µM, over 100 µM and over 46.9 µM, respectively.

Regarding `CN(C)C(=S)/N=c1\ss/c(=N\C(=S)N(C)C)n1Cc1ccco1`, the TGI in the test on DLD-1 colon, in the test with HCT-116 colon, in the test with IGROV1 ovarian, with LXFL 529 NSCLC, in the test with NCI-H226 lung and in the test with NCI-H460 lung was over 100 µM throughout. For the same compound, the TGI with SK-MEL-28 melanoma and in the test with SW-620 colon was over 100 µM in each case.

Take `Nc1c(C(=O)NC23CC4CC(CC(C4)C2)C3)[n+]([O-])c2ccccc2[n+]1[O-]`: the TGI in the test on DLD-1 colon, with IGROV1 ovarian, in the test with LXFL 529 NSCLC, with NCI-H226 lung, with NCI-H460 lung and in the test on SF-295 CNS was over 100 µM in each case. Moreover, the TGI with SK-MEL-28 melanoma and in the test on SW-620 colon was over 100 µM each time.

`O=C1CCNC(=O)NC1`: the TGI in the test with DLD-1 colon, with HCT-116 colon, in the test with IGROV1 ovarian, with LXFL 529 NSCLC, in the test with NCI-H226 lung and in the test with NCI-H460 lung was over 100 µM each time. For the same compound, the TGI with SF-295 CNS, in the test with SK-MEL-28 melanoma and in the test with SW-620 colon was over 100 µM throughout.

For the compound `Cn1nc2ccc3nccc(NCCNCCO)c3c2n1`, the TGI in the test with DLD-1 colon was over 100 µM; in the test on HCT-116 colon it was 89.4 µM; in the test with IGROV1 ovarian, over 100 µM; in the test with LXFL 529 NSCLC it was over 100 µM; in the test on NCI-H226 lung, 85.8 µM; with NCI-H460 lung, 45.2 µM. Also, the TGI in the test with SF-295 CNS, in the test with SK-MEL-28 melanoma and in the test on SW-620 colon was over 100 µM each time.

Regarding `Cc1cccc(C(C)C)c1NC(=O)CCl`, the TGI in the test on DLD-1 colon, in the test on HCT-116 colon, with LXFL 529 NSCLC, in the test with NCI-H226 lung, in the test on NCI-H460 lung and in the test with SF-295 CNS was over 100 µM each time. Moreover, the TGI in the test with SK-MEL-28 melanoma and with SW-620 colon was over 100 µM each time.

For the compound `CCOC(OCC)C(CC)[Se]c1ccccc1` (centres undefined), the TGI with DLD-1 colon, with HCT-116 colon, in the test with IGROV1 ovarian, in the test on LXFL 529 NSCLC, in the test on NCI-H226 lung and with NCI-H460 lung was over 100 µM throughout. Besides, the TGI in the test with SF-295 CNS and in the test with SK-MEL-28 melanoma was over 100 µM each time.

As for `O=C1/C(=C/c2ccc(Cl)cc2)CCC1CN1CCOCC1` (centres undefined), the TGI in the test with DLD-1 colon is 11.3 µM; in the test with HCT-116 colon it was 17.8 µM; in the test on IGROV1 ovarian, 10.5 µM; in the test with LXFL 529 NSCLC it was 6.88 µM; with MDA-MB-435 it was 14.3 µM; with NCI-H226 lung it was 42.3 µM. The TGI came to 39.2 µM in the test with NCI-H460 lung, 38.1 µM with SF-295 CNS, 21.5 µM in the test with SK-MEL-28 melanoma and 6.71 µM in the test with SW-620 colon.

As to `COc1ccc(N=Nc2c(-c3ccccc3)nn(C(=O)CC(=O)Nc3ccccc3Cl)c2-c2ccccc2)cc1`, the TGI in the test on DLD-1 colon, with HCT-116 colon, in the test on IGROV1 ovarian, in the test on LXFL 529 NSCLC, in the test on NCI-H226 lung and in the test with NCI-H460 lung was over 100 µM in each case. Moreover, the TGI with SF-295 CNS, in the test on SK-MEL-28 melanoma and in the test on SW-620 colon was over 100 µM throughout.
